In one assay the test system is melanoma UACC-62. In words: NCI screen cytotoxicity, melanoma UACC-62. Format: cell-based. Conditions: Homo sapiens, UACC-62, 48 h, read-out: cytotoxicity (GI50) melanoma UACC-62.
Another assay deals with prostate DU-145. In words: NCI screen cytotoxicity, prostate DU-145. Format: cell-based. The settings on record: Homo sapiens, DU-145, 48 h, read-out: cytotoxicity (GI50) prostate DU-145.
The test system of a further assay is colon HCT-116. In words: NCI screen cytotoxicity, colon HCT-116. The settings on record: Homo sapiens, HCT-116, 48 h, read-out: cytotoxicity (GI50) colon HCT-116. It is filed as cell-based.
The next assay has as its system lung HOP-62. Nature of the assay: NCI screen cytotoxicity, lung HOP-62. Format: cell-based. The settings on record: Homo sapiens, HOP-62, 48 h, read-out: cytotoxicity (GI50) lung HOP-62.
A further assay concerns renal SN12C. Nature of the assay: NCI screen cytotoxicity, renal SN12C. Conditions: Homo sapiens, 48 h, read-out: cytotoxicity (GI50) renal SN12C. Format: cell-based.
The subject of the next assay is SV40 DNA. Nature of the assay: DNA unwinding assay. Format: biochemical. The settings on record: for ability to unwind/intercalate into free DNA: range of tested concentrations 1-100 μM.
Assay [1] deals with all human cancer cell lines successfully tested. In words: NCI screen, mean graph midpoint. Format: cell-based. Conditions: 48 h, read-out: cytotoxicity (GI50) MGM.
A further assay has as its target T1, human recombinant Top1 (Homo sapiens, UniProt P11387).
T1 sequence (P11387 1-765): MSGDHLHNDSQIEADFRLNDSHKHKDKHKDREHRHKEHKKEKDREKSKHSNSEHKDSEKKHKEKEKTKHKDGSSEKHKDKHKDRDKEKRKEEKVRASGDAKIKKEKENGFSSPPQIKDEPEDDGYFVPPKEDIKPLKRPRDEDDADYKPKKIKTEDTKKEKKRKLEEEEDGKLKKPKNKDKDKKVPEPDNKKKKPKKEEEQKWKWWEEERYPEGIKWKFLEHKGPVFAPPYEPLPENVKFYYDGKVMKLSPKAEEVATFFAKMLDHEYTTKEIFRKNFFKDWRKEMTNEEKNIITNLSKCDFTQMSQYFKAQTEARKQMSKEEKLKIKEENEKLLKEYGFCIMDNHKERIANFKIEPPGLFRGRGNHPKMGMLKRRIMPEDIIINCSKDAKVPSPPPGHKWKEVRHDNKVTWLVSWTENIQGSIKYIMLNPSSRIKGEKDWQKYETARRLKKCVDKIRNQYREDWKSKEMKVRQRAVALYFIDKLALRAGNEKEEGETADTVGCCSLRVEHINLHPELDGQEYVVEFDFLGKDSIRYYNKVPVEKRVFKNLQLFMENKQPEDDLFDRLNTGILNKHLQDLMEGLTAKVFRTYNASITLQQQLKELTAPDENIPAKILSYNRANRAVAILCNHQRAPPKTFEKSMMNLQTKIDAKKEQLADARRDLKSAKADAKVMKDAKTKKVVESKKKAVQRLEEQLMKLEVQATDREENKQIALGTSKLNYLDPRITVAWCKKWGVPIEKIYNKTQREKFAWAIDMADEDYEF
In words: Top1-mediated DNA cleavage assay. It is filed as biochemical. Conditions: for Top1 cleavage: semiquantitative, relative Top1 inhibitory potency vs compounds 1 and 2, 117-bp DNA fragment; for concentration dependence of DNA cleavage band intensity: 0.1-100 μM, side-by-side comparison (Figure 4).

The structures appear in SMILES notation. Where a name gives a salt, the structure may show the parent alone.

For the compound `CC[C@@]1(O)C(=O)OCc2c1cc1n(c2=O)Cc2cc3ccccc3nc2-1` [Compound 1, camptothecin], the GI50 with melanoma UACC-62 is 10 nM; in the assay with prostate DU-145, 10 nM; in the assay with colon HCT-116, 30 nM; in the assay with lung HOP-62, 10 nM; in the assay on renal SN12C, 20 nM.

Regarding `O=C1c2cccnc2-c2[nH]c(=O)c3cc([N+](=O)[O-])ccc3c21` [Compound 17, 7-Aza-5,6-dihydro-3-nitro-5,11-dioxo-11H-indeno[1,2-c]isoquinoline], in the assay on SV40 DNA, the “ability to unwind/intercalate into free DNA” value is on record as “allow intercalation into DNA in the absence of Top1”.

In the case of `CN(C)CCCn1c2c(c3ccccc3c1=O)C(=O)c1cccnc1-2` [Compound 18, 7-Aza-5,6-dihydro-6-(3-dimethylaminopropyl)-5,11-dioxo-11H-indeno[1,2-c]isoquinoline Hydrochloride], the GI50 in assay [1] came out at 1780 nM. At human recombinant Top1, the Top1 cleavage result is recorded as “+++”.

For `COc1cc2c3c(n(CCCN(C)C)c(=O)c2cc1OC)-c1ncccc1C3=O` [Compound 19, 7-Aza-5,6-dihydro-6-(3-dimethylaminopropyl)-2,3-dimethoxy-5,11-dioxo-11H-indeno[1,2-c]isoquinoline Hydrochloride], the GI50 in assay [1] amounted to 4500 nM. Also, the Top1 cleavage result at human recombinant Top1 is “+++”. The “inhibition of Top1-mediated DNA relaxation” value in the assay on SV40 DNA (at highest tested concentration, 100 μM) was “completely inhibits the Top1-mediated DNA relaxation”.

As for `CN(C)CCCn1c2c(c3ccc([N+](=O)[O-])cc3c1=O)C(=O)c1cccnc1-2` [Compound 20, 7-Aza-5,6-dihydro-6-(3-dimethylaminopropyl)-3-nitro-5,11-dioxo-11H-indeno[1,2-c]isoquinoline Hydrochloride], in assay [1], the GI50 turned out to be 1860 nM.

Take `O=C1c2cccnc2-c2c1c1ccccc1c(=O)n2CCCN1CCOCC1` [Compound 21, 7-Aza-5,6-dihydro-6-(3-morpholinopropyl)-5,11-dioxo-11H-indeno[1,2-c]isoquinoline Hydrochloride]: the GI50 in assay [1] came to 15500 nM.

Regarding `COc1cc2c3c(n(CCCN4CCOCC4)c(=O)c2cc1OC)-c1ncccc1C3=O` [Compound 22, 7-Aza-5,6-dihydro-6-(3-morpholinopropyl)-2,3-dimethoxy-5,11-dioxo-11H-indeno[1,2-c]isoquinoline Hydrochloride], on human recombinant Top1, the “concentration dependence of DNA cleavage band intensity” value (from here on “concentration dependence”) is given as “concentration-dependent increase of intensity of DNA cleavage bands” and the Top1 cleavage entry is “++”. Besides, the “ability to unwind/intercalate into free DNA” value in the assay on SV40 DNA is recorded as “inability to unwind/intercalate into DNA”.

For `O=C1c2cccnc2-c2c1c1ccc([N+](=O)[O-])cc1c(=O)n2CCCN1CCOCC1` [Compound 23, 7-Aza-5,6-dihydro-6-(3-morpholinopropyl)-3-nitro-5,11-dioxo-11H-indeno[1,2-c]isoquinoline Hydrochloride], the Top1 cleavage entry on human recombinant Top1 is given as “+++”.

On to `O=C1c2cccnc2-c2c1c1ccccc1c(=O)n2CCCn1ccnc1` [Compound 28, 7-Aza-5,6-dihydro-6-(3-(1H-imidazol-1-yl)propyl)-5,11-dioxo-11H-indeno[1,2-c]isoquinoline], for which the Top1 cleavage result on human recombinant Top1 is on record as “++”.

For `COc1cc2c3c(n(CCCn4ccnc4)c(=O)c2cc1OC)-c1ncccc1C3=O` [Compound 29, 7-Aza-5,6-dihydro-6-(3-(1H-imidazol-1-yl)propyl)-2,3-dimethoxy-5,11-dioxo-11H-indeno[1,2-c]isoquinoline], at human recombinant Top1, the “concentration dependence” value is recorded as “concentration-dependent increase of intensity of DNA cleavage bands” and the Top1 cleavage result is “++”.

For `O=C1c2cccnc2-c2c1c1ccccc1c(=O)n2CCCNCCO` [Compound 30, 7-Aza-5,6-dihydro-6-(3-(2-hydroxyethylamino)propyl)-5,11-dioxo-11H-indeno[1,2-c]isoquinoline Hydrochloride], the GI50 in assay [1] came to 1290 nM. In addition, at human recombinant Top1, the Top1 cleavage result is listed as “+”.

For the compound `COc1cc2c3c(n(CCCNCCO)c(=O)c2cc1OC)-c1ncccc1C3=O` [Compound 31, 7-Aza-5,6-dihydro-6-(3-(2-hydroxyethylamino)propyl)-2,3-dimethoxy-5,11-dioxo-11H-indeno[1,2-c]isoquinoline Hydrochloride], the GI50 in assay [1] is 290 nM. For the same compound, at human recombinant Top1, the “concentration dependence” value is “behave similarly to 19”.

In the case of `COc1cc2c3c(n(CCCN)c(=O)c2cc1OC)-c1ncccc1C3=O` [Compound 32, 7-Aza-5,6-dihydro-6-(3-aminopropyl)-2,3-dimethoxy-5,11-dioxo-11H-indeno[1,2-c]isoquinoline Hydrochloride], the concentration for 50% growth inhibition (GI50) in assay [1] was found to be 2090 nM. Moreover, the “concentration dependence” value at human recombinant Top1 is “behave similarly to 19”.

`CN(C)CCCn1c2c(c3ccccc3c1=O)C(=O)c1ccccc1-2` [Compound 33, reference compound]: the Top1 cleavage result on human recombinant Top1 is recorded as “+++”.

Regarding `CN(C)CCCn1c2c(c3ccc([N+](=O)[O-])cc3c1=O)C(=O)c1ccccc1-2` [Compound 35], the GI50 in the assay on melanoma UACC-62 was 7080 nM; in assay [1], 9770 nM; in the assay with colon HCT-116, 6460 nM; in the assay on renal SN12C, 4170 nM. The Top1 cleavage entry at human recombinant Top1 is “+++”.

What is called GI50 is the concentration giving 50% growth inhibition.

The values are drawn from publication PMC3165090 (Journal of medicinal chemistry, 2011).
